≈ marks a conversion by molar mass, not a printed value. Where “and” joins values, the source holds several entries; their conditions need not be identical. Equal entries are not always repeated. Where two headings read alike, the source gives them in different places.
Columns and labels:
[1] = DPPH antioxidant assay (radical scavenging); type: biochemical; conditions: mean ± SD (n = 3)
Description: The antioxidant effects of the synthesised compounds were assessed using the 2,2-diphenyl-1-picrylhydrazyl (DPPH) antioxidant assay. Table 1 summarises the antioxidant effects of the test samples and ascorbic acid except for compound 5b because it was produced in poor yield.
The radical scavenging activity of the synthesised compounds was measured using the DPPH microplate-based method. The absorbance was measured using a microplate/cuvette reader (Spectramax M5, Molecular Devices, San Jose, CA, USA). Reference standard ascorbic acid was utilised as the positive control for this assay. Test samples were prepared at a starting concentration of 200 μg/mL after mixing with 100 μL of 0.2 mM DPPH methanolic solution. […] Samples were incubated with DPPH in the dark for 30 min at room temperature (25 °C). The methanolic DPPH solution was prepared daily and stored in a flask covered with aluminium foil. DPPH radicals have an absorption maximum (λmax) at 515 nm, at which the absorbance values were measured and converted into a percentage of antioxidant activity.
The methanolic DPPH solution without antioxidants was used as a control, and samples in methanol alone served as a background control. IC50 was determined using GraphPad Prism 7 (GraphPad Software Inc., San Diego, CA, USA). The percent inhibition was calculated using the following Equation (1):(1) % Inhibition=100−Sample Absorbance −Sample background Absorbance/DPPH only Absorbance×100
The assay was carried out in triplicate and performed as much as possible in an area protected against light. The data points are presented as the mean ± standard deviation (SD, n = 3).

[2] = test system: Staphylococcus aureus ATCC 29213; assay: Agar well diffusion, S. aureus; type: cell-based; conditions: ATCC29213, 100 μL of 10 mg/mL in DMSO, read-out: diameter of inhibition zone, SA
Description: (§1) The new molecules were individually tested for their antimicrobial activity in vitro against standard bacteria strains from the American Type Culture Collection (ATCC), namely, Staphylococcus aureus ATCC 29213, Bacillus subtilis ATCC 6633, Bacillus megaterium ATCC 9885 (Gram-positive), Escherichia coli ATCC 2592, and Pseudomonas aeruginosa ATCC 27,953 (Gram-negative). The compounds were also microbiologically tested against locally isolated Saccharomyces cerevisiae (yeast) and the standard Agricultural Research Service Culture Collection (NRRL) strain of the yeast-like pathogenic fungus Candida albicans NRRL Y-477. Primary screening was conducted using the agar well diffusion method using nutrient agar (NA) medium and Sabourand dextrose agar (SDA) medium for the tested pathological bacteria and yeast, respectively. […].
(§2) Antimicrobial tests were conducted via the agar well diffusion method using 100 μL of suspension containing 1 × 10^8 CFU/mL pathological tested bacteria and 1 × 10^6 CFU/mL yeast spread on NA and SDA, respectively. After the media cooled and solidified, wells (10 mm in diameter) were made in the solidified agar and loaded with 100 μL of the tested compound solution prepared by dissolving 10 mg of the chemical compound in 1 mL dimethyl sulfoxide (DMSO). The inoculated plates were then incubated for 24 h at 37 °C for bacteria and yeast growth. DMSO served as negative control. Ciprofloxacin (10 mg/mL) and ketoconazole (10 mg/mL) were used as standards for antibacterial and antifungal activity, respectively. After incubation, antimicrobial activity was evaluated by measuring the zone of inhibition against the test organisms and compared with that of the standard. Antimicrobial activities were expressed as the diameter of the inhibition zone (IZ) in mm. The experiment was carried out in triplicate and the average zone of inhibition was calculated.

[3] = test system: Bacillus subtilis ATCC 6633; assay: Agar well diffusion, B. subtilis; type: cell-based; conditions: ATCC6633, 100 μL of 10 mg/mL in DMSO, read-out: diameter of inhibition zone, BS
Description: as §1, §2

[4] = test system: Bacillus megaterium ATCC 9885; assay: Agar well diffusion, B. megaterium; type: cell-based; conditions: Priestia megaterium, ATCC9885, 100 μL of 10 mg/mL in DMSO, read-out: diameter of inhibition zone, BM
Description: as §1, §2

[5] = test system: Escherichia coli ATCC 2592; assay: Agar well diffusion, E. coli; type: cell-based; conditions: ATCC2592, 100 μL of 10 mg/mL in DMSO, read-out: diameter of inhibition zone, EC
Description: as §1, §2

[6] = test system: Pseudomonas aeruginosa ATCC 27,953; assay: Agar well diffusion, P. aeruginosa; type: cell-based; conditions: ATCC27, 100 μL of 10 mg/mL in DMSO, read-out: diameter of inhibition zone, PA
Description: as §1, §2

[7] = test system: Saccharomyces cerevisiae local isolate; assay: Agar well diffusion, S. cerevisiae; type: cell-based; conditions: read-out: diameter of inhibition zone, SC
Description: as §1, §2

[8] = test system: Candida albicans NRRL Y-477; assay: Agar well diffusion, C. albicans; type: cell-based; conditions: NRRLY477, 100 μL of 10 mg/mL in DMSO, read-out: diameter of inhibition zone, CA
Description: as §1, §2

[9] = test system: trypsin; assay: Proteinase-inhibitory activity; type: biochemical; conditions: 250 µg/mL; mean ± SD (n = 3)
Description: The newly synthesised compounds were individually tested for their in vitro anti-inflammatory activity against proteinase enzyme. […] This test was performed at the Pharmacology Department, Medical Research Division, National Research Centre, Cairo, Egypt. Furthermore, compounds 2–8 were evaluated for their COX1/COX2 inhibitory activities.
The test was performed according to El-Serwy et al. with minor modifications. The reaction mixture (2 mL) contained 0.06 mg trypsin, 20 mM Tris HCl buffer (pH 7.4), and 1 mL test sample (250 µg/mL for each compound). After incubating for 5 min, 1 mL of 0.8% (w/v) casein was added. The mixture was incubated for an additional 20 min. The reaction was arrested by adding 1 mL of 10% perchloric acid. The cloudy suspension was centrifuged, and the absorbance of the supernatant was read at 280 nm. Reference standard aspirin was used as the positive control. The experiment was performed in triplicate. The percent inhibition of protein denaturation was calculated using the following Equation (2):(2) % Inhibition=100−A control −A test/A control×100 where Acontrol and Atest represent the absorbance of the control reaction without and with the sample, respectively.

[10] = target: T1, COX-1 (Homo sapiens, UniProt P23219); assay: COX-1 inhibition, Cayman assay kit; type: biochemical; conditions: mean of two determinations
T1 construct: purchased Cayman Chemical 701070
T1 sequence (P23219 24-599): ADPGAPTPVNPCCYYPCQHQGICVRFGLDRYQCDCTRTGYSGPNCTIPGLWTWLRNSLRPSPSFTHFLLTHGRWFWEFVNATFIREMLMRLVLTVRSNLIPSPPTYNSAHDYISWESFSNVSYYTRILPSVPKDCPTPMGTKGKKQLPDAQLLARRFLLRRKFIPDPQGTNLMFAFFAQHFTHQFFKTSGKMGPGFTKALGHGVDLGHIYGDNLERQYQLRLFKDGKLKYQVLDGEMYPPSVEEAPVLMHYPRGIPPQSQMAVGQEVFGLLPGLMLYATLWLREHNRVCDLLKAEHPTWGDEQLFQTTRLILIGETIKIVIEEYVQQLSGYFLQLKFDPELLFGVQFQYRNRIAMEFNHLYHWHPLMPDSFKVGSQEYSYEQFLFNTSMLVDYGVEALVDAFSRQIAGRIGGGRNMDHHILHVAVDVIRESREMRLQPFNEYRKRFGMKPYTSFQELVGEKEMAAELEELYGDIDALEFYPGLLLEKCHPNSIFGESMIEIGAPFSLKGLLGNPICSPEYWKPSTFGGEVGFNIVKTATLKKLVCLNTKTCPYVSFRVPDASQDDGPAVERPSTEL

[11] = target: T2, COX-2 (Homo sapiens, UniProt P35354); assay: COX-2 inhibition, Cayman assay kit; type: biochemical; conditions: for IC50: mean of two determinations; for SI, selectivity index (COX-1/COX-2): ratio of COX-1/COX-2 IC50
T2 construct: purchased Cayman Chemical 701080
T2 sequence (P35354 18-604): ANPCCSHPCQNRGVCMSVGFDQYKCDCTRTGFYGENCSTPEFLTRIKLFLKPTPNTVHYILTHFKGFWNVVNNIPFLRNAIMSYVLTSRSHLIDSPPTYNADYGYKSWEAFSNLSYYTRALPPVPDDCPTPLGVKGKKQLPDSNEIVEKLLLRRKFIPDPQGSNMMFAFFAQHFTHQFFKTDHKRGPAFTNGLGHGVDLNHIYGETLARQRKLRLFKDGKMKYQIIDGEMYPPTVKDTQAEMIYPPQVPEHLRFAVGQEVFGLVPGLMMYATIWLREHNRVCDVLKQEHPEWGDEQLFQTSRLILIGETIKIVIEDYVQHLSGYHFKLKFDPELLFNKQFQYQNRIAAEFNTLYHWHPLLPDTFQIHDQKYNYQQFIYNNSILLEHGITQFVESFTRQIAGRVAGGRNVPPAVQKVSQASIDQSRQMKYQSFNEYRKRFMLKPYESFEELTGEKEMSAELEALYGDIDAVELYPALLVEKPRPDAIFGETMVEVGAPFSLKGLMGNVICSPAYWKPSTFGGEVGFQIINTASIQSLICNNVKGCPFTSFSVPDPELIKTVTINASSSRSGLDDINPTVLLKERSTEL

[12] = test system: Saccharomyces cerevisiae local isolate; assay: MIC, two-fold serial dilution, S. cerevisiae; type: cell-based; conditions: two-fold serial dilution, S. cerevisiae, read-out: Minimum inhibitory concentration, SC
Description: as §1
(§3) The bacteriostatic activity of the active compounds (having IZ > 16 mm) was then evaluated using the two-fold serial dilution technique. Two-fold serial dilutions of the tested compounds solutions were prepared using the proper nutrient broth to reach final concentrations of 1000, 500, 250, and 125 μg/mL. The tubes were then inoculated with the test microorganisms grown in their suitable broth at 37 °C for 24 h (1 × 10^8 CFU/mL for bacteria and 1 × 10^6 CFU/mL of yeast), 0.1 mL of the above inoculum was administered per 5 mL, and the tubes were incubated at 37 °C for 24 h. The lowest concentration showing no growth was taken as the MIC.

[13] = test system: Candida albicans NRRL Y-477; assay: MIC, two-fold serial dilution, C. albicans; type: cell-based; conditions: NRRLY477, read-out: Minimum inhibitory concentration, CA
Description: as §1, §3

[14] = well diffusion, 100 μL of 10 mg/mL in DMSO, S. cerevisiae

Row | Structure (SMILES) | IC50 [1] | % Inhibition (proteinase) [9] [%] | MIC [12] [µg/mL] | MIC [13] [µg/mL] | zone of inhibition at 10000 µg/mL [2] [mm] | zone of inhibition at 10000 µg/mL [3] [mm] | zone of inhibition at 10000 µg/mL [4] [mm] | zone of inhibition at 10000 µg/mL [5] [mm] | zone of inhibition at 10000 µg/mL [6] [mm] | zone of inhibition at 10000 µg/mL [7] [mm] | zone of inhibition at 10000 µg/mL [8] [mm] | IC50 [10] [µM] | IC50 [11] [µM] | SI, selectivity index (COX-1/COX-2) [11] | melting point [°C] | zone of inhibition at 10000 µg/mL [7, 14] [mm]
1 | Cc1ccc2oc(=O)c3c(c2c1)OC(/N=C/N(C)C)=C(C#N)C3c1ccc([N+](=O)[O-])cc1 (racemic) [4a, (±)-N′-(3-cyano-9-methyl-4-(4-nitrophenyl)-5-oxo-4H,5H-pyrano[3,2-c]chromen-2-yl)-N,N-dimethylformimidamide] | — ((—): inactive (IC50 > 200 μg/mL)) | 31.99 ± 2.45 |  |  | 16 | < 15 | < 15 | < 15 | < 15 | < 15 | < 15 | 12.5 | 7.99 | 1.56 | 279 to 281 | 
2 | Cc1ccc2oc(=O)c3c(c2c1)OC(/N=C/N(C)C)=C(C#N)C3c1ccco1 (racemic) [4b, (±)-N′-(3-cyano-4-(furan-2-yl)-9-methyl-5-oxo-4H,5H-pyrano[3,2-c]chromen-2-yl)-N,N-dimethylformimidamide] | — ((—): inactive (IC50 > 200 μg/mL)) | 33.17 ± 2.79 |  |  | 16 | < 15 | < 15 | 15 | 15 | < 15 | < 15 | 57.5 | 25.2 | 2.28 | 273 to 275 | 
3 | Cc1ccc2oc(=O)c3c(c2c1)OC(/N=C/c1ccccc1)=C(C#N)C3c1ccco1 (racemic) [5b, (±)-2-(benzylideneamino)-4-(furan-2-yl)-9-methyl-5-oxo-4H,5H-pyrano[3,2-c]chromene-3-carbonitrile] |  |  |  |  |  |  |  |  |  |  |  | 215 | 19.6 | 10.9 and 10.97 | 250 to 252 | 
4 | O=C1O[C@H]([C@@H](O)CO)C(O)=C1O [Ascorbic acid, reference compound] | 2.83 ± 0.166 µg/mL (≈ 16.1 µM) |  |  |  |  |  |  |  |  |  |  |  |  |  |  | 
5 | CC(=O)Oc1ccccc1C(=O)O [Aspirin, reference compound] |  | 45.83 ± 4.21 |  |  |  |  |  |  |  |  |  |  |  |  |  | 
6 | CC(=O)N1CCN(c2ccc(OCC3COC(Cn4ccnc4)(c4ccc(Cl)cc4Cl)O3)cc2)CC1 (stereo not shown) [Ketoconazole, reference compound] |  |  | 125 (≈ 235 µM) | 125 (≈ 235 µM) | < 15 | < 15 | < 15 | < 15 | < 15 |  | 28 |  |  |  |  | 30

Second part, led by results:

Row | IC50 [1] | % Inhibition (proteinase) [9] [%] | MIC [12] [µg/mL] | MIC [13] [µg/mL] | Structure (SMILES) | zone of inhibition at 10000 µg/mL [2] [mm] | zone of inhibition at 10000 µg/mL [3] [mm] | zone of inhibition at 10000 µg/mL [4] [mm] | zone of inhibition at 10000 µg/mL [5] [mm] | zone of inhibition at 10000 µg/mL [6] [mm] | zone of inhibition at 10000 µg/mL [7] [mm] | zone of inhibition at 10000 µg/mL [8] [mm] | IC50 [10] [µM] | IC50 [11] [µM] | SI, selectivity index (COX-1/COX-2) [11] | melting point [°C] | zone of inhibition at 10000 µg/mL [7, 14] [mm]
7 | 32.85 ± 1.322 µg/mL (≈ 83.4 µM) | 18.5 ± 3.47 |  |  | CC(=O)c1ccc(NS(=O)(=O)c2c(O)c3cc(Cl)ccc3oc2=O)cc1 [8e, N-(4-acetylphenyl)-6-chloro-4-hydroxy-2-oxo-2H-chromene-3-sulfonamide] | < 15 | 15 | 16 | < 15 | < 15 |  | < 15 | 19.9 | 9.22 | 2.2 and 2.16 | 238 to 240 | < 15
8 | 35.36 ± 3.265 µg/mL (≈ 94.7 µM) | 2.0 ± 1.4 |  |  | CC(=O)c1ccc(NS(=O)(=O)c2c(O)c3cc(C)ccc3oc2=O)cc1 [8f, N-(4-acetylphenyl)-4-hydroxy-6-methyl-2-oxo-2H-chromene-3-sulfonamide] | 16 | 15 | 15 | < 15 | < 15 |  | < 15 | 7.92 | 25.7 | 0.3 and 0.31 | 231 to 232 | < 15

From publication PMC7397269, “Synthesis and Evaluation of New Coumarin Derivatives as Antioxidant, Antimicrobial, and Anti-Inflammatory Agents” (Molecules, 2020)
